Data reported in patent US20260022142A1, “MACROCYCLIC IMMUNOMODULATORS” (Bristol-Myers Squibb Company, priority 2022, published 2026).
Numbered stars: 1 amine (or outer) side, 2 acyl side, 3 side chain; on linkers, the order of the positions; unused ones are H or OH. Bridge positions count the residues as written; N and C are the ends. Square brackets hold non-standard residues; d marks the D form. Peptide text beside a SMILES is read from it. * marks the point of attachment. Bip = N[C@@H](Cc1ccc(-c2ccccc2)cc1)C(=O)O; Phe(3-Me) = Cc1cccc(C[C@H](N)C(=O)O)c1; γGlu = O=C(O)[C@H](CCC(=O)[*:2])N[*:1]; βAsp = O=C(O)[C@H](CC(=O)[*:2])N[*:1]; Cha = N[C@@H](CC1CCCCC1)C(=O)O; Cit = NC(=O)NCCC[C@H](N)C(=O)O; Carboxymethyl = O=C(O)C*; Orn = NCCC[C@H](N)C(=O)O; Aun = NCCCCCCCCCCC(=O)O; Dab = NCC[C@H](N)C(=O)O; Dap = NC[C@H](N)C(=O)O; AEEA = NCCOCCOCC(=O)O

Molecular target: T1, PD-1/PD-L1 interaction (PE-labeled human PD-L1-Ig binding to Jurkat cell line over-expressing human PD-1) (Homo sapiens, UniProt Q15116)
T1 construct: expressed in transfected cells; host or cells: Jurkat
T1 sequence (Q15116 25-288): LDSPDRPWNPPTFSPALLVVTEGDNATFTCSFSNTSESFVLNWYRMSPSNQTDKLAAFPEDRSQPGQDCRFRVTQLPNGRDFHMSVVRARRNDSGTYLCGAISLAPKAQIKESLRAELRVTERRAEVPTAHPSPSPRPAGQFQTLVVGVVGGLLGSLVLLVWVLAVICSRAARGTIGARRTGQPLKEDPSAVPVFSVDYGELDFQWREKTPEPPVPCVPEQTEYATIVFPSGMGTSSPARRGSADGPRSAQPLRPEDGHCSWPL
Experiment: Jurkat-PD-1 Cell Binding High-Content Screening Assay (CBA)
Type: cell-based
Conditions: Jurkat cell line over-expressing human PD-1; PE-labeled PD-L1-Ig 20 nM final; read-out: Jurkat hPD1-PDL1 IC50
Protocol: Example 2: Jurkat-PD-1 Cell Binding High-Content Screening Assay (CBA)
Phycoerythrin (PE) was covalently linked to the Ig epitope tag of human PD-L1-Ig and fluorescently-labeled PD-L1-Ig was used for binding studies with a Jurkat cell line over-expressing human PD-1 (Jurkat-PD-1). Briefly, 8×10^3 Jurkat-hPD-1 cells were seeded into 384 well plates in 20 μl of DMEM supplemented with 10% fetal calf serum. 100 nl of compound was added to cells followed by incubation at 37° C. for 2 h. Then, 5 μl of PE-labeled PD-L1-Ig (20 nM final), diluted in DMEM supplemented with 10% fetal calf serum. After 1 hour incubation, cells were fixed with 4% paraformaldehyde in dPBS containing 10 μg/ml Hoechst 33342 and then washed 3× in 100 μl dPBS. Data was collected and processed using a Cell Insight NXT High Content Imager and associated software.

Row | Compound | IC50 [nM]
1 | Cc1cccc(C[C@@H]2NC(=O)[C@H](CC(=O)O)NC(=O)[C@H](Cc3ccc(OCC(=O)O)cc3)NC(=O)[C@H](CN)NC(=O)CSC[C@@H](C(=O)N[C@@H](C)C(=O)N[C@@H](CC(=O)NCC(=O)NCCCCCCCCCCC(=O)O)C(=O)O)NC(=O)[C@H]([C@@H](C)O)NC(=O)[C@H](C(C)C)NC(=O)[C@H](CC3CCCCC3)NC(=O)[C@H](CCN)NC(=O)[C@@H](CC(C)C)NC(=O)[C@H](CCCN)NC(=O)[C@H](CCCNC(N)=O)NC(=O)[C@H](Cc3ccc(-c4ccccc4)cc3)NC(=O)[C@H](C(C)C)NC2=O)c1 [Compound 1012] ({CH2CO}-[Dap]Y(Carboxymethyl)D[Phe(3-Me)]V[Bip][Cit][Orn][dL][Dab][Cha]VTCA[βAsp]G[Aun]-OH; thioether N-14) | 5
2 | Cc1cccc(C[C@@H]2NC(=O)[C@H](CC(=O)O)NC(=O)[C@H](Cc3ccc(OCC(=O)O)cc3)NC(=O)[C@H](CN)NC(=O)CSC[C@@H](C(=O)N[C@@H](C)C(=O)N[C@@H](CC(=O)O)C(=O)NCCOCCOCC(=O)N[C@@H](CC(=O)O)C(=O)NCCOCCOCC(=O)NCCCCCCCCCCC(=O)O)NC(=O)[C@H]([C@@H](C)O)NC(=O)[C@H](C(C)C)NC(=O)[C@H](CC3CCCCC3)NC(=O)[C@H](CCN)NC(=O)[C@@H](CC(C)C)NC(=O)[C@H](CCCN)NC(=O)[C@H](CCCNC(N)=O)NC(=O)[C@H](Cc3ccc(-c4ccccc4)cc3)NC(=O)[C@H](C(C)C)NC2=O)c1 [Compound 1013] ({CH2CO}-[Dap]Y(Carboxymethyl)D[Phe(3-Me)]V[Bip][Cit][Orn][dL][Dab][Cha]VTCAD[AEEA]D[AEEA][Aun]-OH; thioether N-14) | 11.9
3 | Cc1cccc(C[C@@H]2NC(=O)[C@H](CC(=O)O)NC(=O)[C@H](Cc3ccc(OCC(=O)O)cc3)NC(=O)[C@H](CN)NC(=O)CSC[C@@H](C(=O)N[C@@H](C)C(=O)N[C@@H](CC(=O)O)C(=O)NCCOCCOCC(=O)N[C@@H](CCC(=O)NCCOCCOCC(=O)NCCCCCCCCCCC(=O)O)C(=O)O)NC(=O)[C@H]([C@@H](C)O)NC(=O)[C@H](C(C)C)NC(=O)[C@H](CC3CCCCC3)NC(=O)[C@H](CCN)NC(=O)[C@@H](CC(C)C)NC(=O)[C@H](CCCN)NC(=O)[C@H](CCCNC(N)=O)NC(=O)[C@H](Cc3ccc(-c4ccccc4)cc3)NC(=O)[C@H](C(C)C)NC2=O)c1 [Compound 1014] ({CH2CO}-[Dap]Y(Carboxymethyl)D[Phe(3-Me)]V[Bip][Cit][Orn][dL][Dab][Cha]VTCAD[AEEA][γGlu][AEEA][Aun]-OH; thioether N-14) | 5.5
4 | Cc1cccc(C[C@@H]2NC(=O)[C@H](CC(=O)O)NC(=O)[C@H](Cc3ccc(OCC(=O)O)cc3)NC(=O)[C@H](CN)NC(=O)CSC[C@@H](C(=O)N[C@@H](C)C(=O)N[C@@H](CCC(=O)O)C(=O)NCCOCCOCC(=O)N[C@@H](CCC(=O)NCCOCCOCC(=O)NCCCCCCCCCCC(=O)O)C(=O)O)NC(=O)[C@H]([C@@H](C)O)NC(=O)[C@H](C(C)C)NC(=O)[C@H](CC3CCCCC3)NC(=O)[C@H](CCN)NC(=O)[C@@H](CC(C)C)NC(=O)[C@H](CCCN)NC(=O)[C@H](CCCNC(N)=O)NC(=O)[C@H](Cc3ccc(-c4ccccc4)cc3)NC(=O)[C@H](C(C)C)NC2=O)c1 [Compound 1015] ({CH2CO}-[Dap]Y(Carboxymethyl)D[Phe(3-Me)]V[Bip][Cit][Orn][dL][Dab][Cha]VTCAE[AEEA][γGlu][AEEA][Aun]-OH; thioether N-14) | 7.9
5 | Cc1cccc(C[C@@H]2NC(=O)[C@H](CC(=O)O)NC(=O)[C@H](Cc3ccc(OCC(=O)O)cc3)NC(=O)[C@H](CN)NC(=O)CSC[C@@H](C(=O)N[C@@H](C)C(=O)N[C@@H](CC(=O)O)C(=O)NCCOCCOCC(=O)N[C@@H](CCC(=O)O)C(=O)NCCOCCOCC(=O)NCCCCCCCCCCC(=O)O)NC(=O)[C@H]([C@@H](C)O)NC(=O)[C@H](C(C)C)NC(=O)[C@H](CC3CCCCC3)NC(=O)[C@H](CCN)NC(=O)[C@@H](CC(C)C)NC(=O)[C@H](CCCN)NC(=O)[C@H](CCCNC(N)=O)NC(=O)[C@H](Cc3ccc(-c4ccccc4)cc3)NC(=O)[C@H](C(C)C)NC2=O)c1 [Compound 1016] ({CH2CO}-[Dap]Y(Carboxymethyl)D[Phe(3-Me)]V[Bip][Cit][Orn][dL][Dab][Cha]VTCAD[AEEA]E[AEEA][Aun]-OH; thioether N-14) | 6
6 | Cc1cccc(C[C@@H]2NC(=O)[C@H](CC(=O)O)NC(=O)[C@H](Cc3ccc(OCC(=O)O)cc3)NC(=O)[C@H](CN)NC(=O)CSC[C@@H](C(=O)N[C@@H](C)C(=O)N[C@@H](CC(=O)NCCOCCOCC(=O)N[C@@H](CCC(=O)NCCOCCOCC(=O)NCCCCCCCCCCC(=O)O)C(=O)O)C(=O)O)NC(=O)[C@H]([C@@H](C)O)NC(=O)[C@H](C(C)C)NC(=O)[C@H](CC3CCCCC3)NC(=O)[C@H](CCN)NC(=O)[C@@H](CC(C)C)NC(=O)[C@H](CCCN)NC(=O)[C@H](CCCNC(N)=O)NC(=O)[C@H](Cc3ccc(-c4ccccc4)cc3)NC(=O)[C@H](C(C)C)NC2=O)c1 [Compound 1018] ({CH2CO}-[Dap]Y(Carboxymethyl)D[Phe(3-Me)]V[Bip][Cit][Orn][dL][Dab][Cha]VTCA[βAsp][AEEA][γGlu][AEEA][Aun]-OH; thioether N-14) | 8.4
7 | Cc1cccc(C[C@@H]2NC(=O)[C@H](CC(=O)O)NC(=O)[C@H](Cc3ccc(OCC(=O)O)cc3)NC(=O)[C@H](CN)NC(=O)CSC[C@@H](C(=O)N[C@@H](C)C(=O)N[C@@H](CC(=O)NCCOCCOCC(=O)N[C@@H](CC(=O)O)C(=O)NCCOCCOCC(=O)NCCCCCCCCCCC(=O)O)C(=O)O)NC(=O)[C@H]([C@@H](C)O)NC(=O)[C@H](C(C)C)NC(=O)[C@H](CC3CCCCC3)NC(=O)[C@H](CCN)NC(=O)[C@@H](CC(C)C)NC(=O)[C@H](CCCN)NC(=O)[C@H](CCCNC(N)=O)NC(=O)[C@H](Cc3ccc(-c4ccccc4)cc3)NC(=O)[C@H](C(C)C)NC2=O)c1 [Compound 1019] ({CH2CO}-[Dap]Y(Carboxymethyl)D[Phe(3-Me)]V[Bip][Cit][Orn][dL][Dab][Cha]VTCA[βAsp][AEEA]D[AEEA][Aun]-OH; thioether N-14) | 6.8
8 | Cc1cccc(C[C@@H]2NC(=O)[C@H](CC(=O)O)NC(=O)[C@H](Cc3ccc(OCC(=O)O)cc3)NC(=O)[C@H](CN)NC(=O)CSC[C@@H](C(=O)N[C@@H](C)C(=O)N[C@@H](CC(=O)NCCOCCOCC(=O)N[C@@H](CCC(=O)O)C(=O)NCCOCCOCC(=O)NCCCCCCCCCCC(=O)O)C(=O)O)NC(=O)[C@H]([C@@H](C)O)NC(=O)[C@H](C(C)C)NC(=O)[C@H](CC3CCCCC3)NC(=O)[C@H](CCN)NC(=O)[C@@H](CC(C)C)NC(=O)[C@H](CCCN)NC(=O)[C@H](CCCNC(N)=O)NC(=O)[C@H](Cc3ccc(-c4ccccc4)cc3)NC(=O)[C@H](C(C)C)NC2=O)c1 [Compound 1020] ({CH2CO}-[Dap]Y(Carboxymethyl)D[Phe(3-Me)]V[Bip][Cit][Orn][dL][Dab][Cha]VTCA[βAsp][AEEA]E[AEEA][Aun]-OH; thioether N-14) | 8.3
9 | Cc1cccc(C[C@@H]2NC(=O)[C@H](CC(=O)O)NC(=O)[C@H](Cc3ccc(OCC(=O)O)cc3)NC(=O)[C@H](CN)NC(=O)CSC[C@@H](C(=O)N[C@@H](C)C(=O)N[C@@H](CC(=O)O)C(=O)NCCOCCOCC(=O)N[C@@H](CC(=O)NCCOCCOCC(=O)NCCCCCCCCCCC(=O)O)C(=O)O)NC(=O)[C@H]([C@@H](C)O)NC(=O)[C@H](C(C)C)NC(=O)[C@H](CC3CCCCC3)NC(=O)[C@H](CCN)NC(=O)[C@@H](CC(C)C)NC(=O)[C@H](CCCN)NC(=O)[C@H](CCCNC(N)=O)NC(=O)[C@H](Cc3ccc(-c4ccccc4)cc3)NC(=O)[C@H](C(C)C)NC2=O)c1 [Compound 1021] ({CH2CO}-[Dap]Y(Carboxymethyl)D[Phe(3-Me)]V[Bip][Cit][Orn][dL][Dab][Cha]VTCAD[AEEA][βAsp][AEEA][Aun]-OH; thioether N-14) | 8.3
10 | Cc1cccc(C[C@@H]2NC(=O)[C@H](CC(=O)O)NC(=O)[C@H](Cc3ccc(OCC(=O)O)cc3)NC(=O)[C@H](CN)NC(=O)CSC[C@@H](C(=O)N[C@@H](C)C(=O)N[C@@H](CCC(=O)O)C(=O)NCCOCCOCC(=O)N[C@@H](CC(=O)NCCOCCOCC(=O)NCCCCCCCCCCC(=O)O)C(=O)O)NC(=O)[C@H]([C@@H](C)O)NC(=O)[C@H](C(C)C)NC(=O)[C@H](CC3CCCCC3)NC(=O)[C@H](CCN)NC(=O)[C@@H](CC(C)C)NC(=O)[C@H](CCCN)NC(=O)[C@H](CCCNC(N)=O)NC(=O)[C@H](Cc3ccc(-c4ccccc4)cc3)NC(=O)[C@H](C(C)C)NC2=O)c1 [Compound 1022] ({CH2CO}-[Dap]Y(Carboxymethyl)D[Phe(3-Me)]V[Bip][Cit][Orn][dL][Dab][Cha]VTCAE[AEEA][βAsp][AEEA][Aun]-OH; thioether N-14) | 5.7
11 | Cc1cccc(C[C@@H]2NC(=O)[C@H](CC(=O)O)NC(=O)[C@H](Cc3ccc(OCC(=O)O)cc3)NC(=O)[C@H](CN)NC(=O)CSC[C@@H](C(=O)N[C@@H](C)C(=O)N[C@@H](CC(=O)NCCCCCCCCCCC(=O)O)C(=O)O)NC(=O)[C@H]([C@@H](C)O)NC(=O)[C@H](C(C)C)NC(=O)[C@H](CC3CCCCC3)NC(=O)[C@H](CCN)NC(=O)[C@@H](CC(C)C)NC(=O)[C@H](CCCN)NC(=O)[C@H](CCCNC(N)=O)NC(=O)[C@H](Cc3ccc(-c4ccccc4)cc3)NC(=O)[C@H](C(C)C)NC2=O)c1 [Compound 1023] ({CH2CO}-[Dap]Y(Carboxymethyl)D[Phe(3-Me)]V[Bip][Cit][Orn][dL][Dab][Cha]VTCA[βAsp][Aun]-OH; thioether N-14) | 7.9
